Patent US20030157516A1, “G protein coupled receptor” (priority 2000, published 2003)
Values joined by “and” are separate entries in the source; they are usually repeats but may differ in a detail not shown here. Equal entries are not always repeated. Where two headings read alike, the source gives them in different places.

Experiments:
[1] = molecular target: T1, adenine binding rat receptor (Rattus norvegicus, UniProt Q7TN49); assay: [3H]adenine competition binding on CHO membranes transiently transfected; conditions: transfected cells, 15 nM [3H]adenine
T1 construct: expressed in transfected cells; host or cells: CHO cells, transient, lipofectamine PLUS
T1 sequence (Q7TN49 1-304): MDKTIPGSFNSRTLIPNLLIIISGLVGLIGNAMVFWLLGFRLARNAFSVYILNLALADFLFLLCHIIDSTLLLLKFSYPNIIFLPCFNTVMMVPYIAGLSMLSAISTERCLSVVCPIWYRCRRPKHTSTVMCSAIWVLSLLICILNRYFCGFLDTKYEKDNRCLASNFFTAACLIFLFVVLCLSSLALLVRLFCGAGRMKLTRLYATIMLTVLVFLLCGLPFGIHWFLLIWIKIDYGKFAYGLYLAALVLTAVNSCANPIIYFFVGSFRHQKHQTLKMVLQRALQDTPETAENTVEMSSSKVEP
Description: (§1) The membranes were prepared as total particulate fractions. The cell lines were cultured to 906 confluency on 145 mm petri dishes and treated with 5 mM sodium butyrate, 24 hours before collection. The culturing medium was removed and the cells were washed twice with ice cold phosphate buffered saline (PBS without Ca^2+ and Mg^2+), scraped from the plates in 50 mM Tris-HCl buffer, pH 7.4, and collected by centrifugation (10 minutes at 16,000 RPM at 4° C.). The cell pellet was re-suspended in hypotonic 5 mM Tris-HCl buffer, pH 7.4, and homogenized with an Ultra Turrax homogenizer (Janker Kunkel, Germany). The homogenate was centrifuged at 18,000 RPM for 20 minutes at 4° C. The final pellet was re-suspended in 50 mM Tris-HCl buffer, pH 7.4 and stored in aliquots at −70° C. A protein determination was performed using the Bradford protein assay (Biorad, Germany) using bovine serum albumin (BSA) as standard.
(§2) A) Methods—[3H]Adenine binding experiments were performed to characterize wild type cell lines before transfection as well as transiently and permanently transfected cell lines. Membranes were thawed on ice and diluted in 50 mM HEPES buffer, pH 7.4 supplemented with 10 mM MgCl2 and 1 mM EGTA. […] Both assays were carried out in a final volume of 500 μl, using 18 μg of membrane protein for the transfected CHO cells and 30 μg of membrane protein for the wild type CHO cells for the saturation binding. For competition binding experiments, 15 and 50 μg of membrane protein was used for the transfected and wild type cells, respectively. The reaction was terminated by rapid filtration through Whatman GF/B filters using a Brandel multi-channel cell harvester (96 wells). The filters were washed three times with 3 ml ice cold 50 mM HEPES buffer, pH 7.4, transferred to liquid scintillation vials and 3 ml of scintillation fluid (Ultima Gold MV, Packard, Netherlands) was added. Samples were counted in a β-scintillation counter after at least 6 hours to permit the glass fiber filters to become uniformly translucent.

wild type CHO cells = assay: [3H]adenine competition binding on wild type CHO membranes; conditions: 15 nM [3H]adenine
Description: as §1, with “The cell lines were cultured to 906 confluency on 145 mm petri dishes and treated with 5 mM sodium butyrate, 24 hours before collection.” left out
as §2, with “Membranes” for “A) Methods—[3H]Adenine binding experiments were performed to characterize wild type cell lines before transfection as well as transiently and permanently transfected cell lines. Membranes”

adenine binding GPCR = molecular target: T2, adenine binding GPCR (Rattus norvegicus, UniProt Q7TN49); assay: FLIPR Ca2+ transient assay, antagonism of 30 nM adenine challenge; type: cell-based; conditions: 15 minutes incubation with compound (30 μM to 30 pM), then challenge with 30 nM adenine
T2 construct: The full length reading frame was inserted into the mammalian expression vector pcDNA3; expressed in transfected cells; host or cells: HEK293 cells stably transfected with pLEC/Gqi or pLEC/Gqo
T2 sequence (Q7TN49 1-304): T1 sequence (Q7TN49 1-304)
From the text: (§3) The full length reading frame was inserted into the mammalian expression vector pcDNA3 (Invitrogen, Carlsbad, Calif., U.S.A.) and the resulting expression construct was transiently transfected with the FuGENE 6 reagent (Roche Molecular Biochemicals, Mannheim, Germany) into HEK293 cells stably transfected (E. Bender, unpublished) with pLEC/Gqi or pLEC/Gqo (Molecular Devices, Sunnyvale, Calif., U.S.A.). The cells were loaded with Fluo-4 (Molecular Probes, Eugene, Oreg., U.S.A.) according to the recommendations of the supplier.
After a 15 minutes incubation at room temperature, the same cells were challenged with 30 nM adenine, to detect antagonistic properties of molecules added in the first round of superfusion.

rat adenine binding GPCR = molecular target: T3, rat adenine binding GPCR (Rattus norvegicus, UniProt Q7TN49); assay: FLIPR Ca2+ transient assay, agonism, HEK293/Gq chimera cells transiently transfected with rat adenine binding GPCR/pcDNA3; type: cell-based; design: The full length reading frame was inserted into the mammalian expression vector pcDNA3; expressed in transfected cells; host or cells: HEK293 cells stably transfected with pLEC/Gqi or pLEC/Gqo; conditions: for calcium transients elicited: HEK293/Gaqo cells, 3.3 μM; for agonistic effects on Ca2+ transients: concentrations ranging from 30 μM to 30 pM
T3 sequence (Q7TN49 1-304): T1 sequence (Q7TN49 1-304)
From the text: This assay is based around an instrument called a FLuorescence Imaging Plate Reader ((FLIPR®), Molecular Devices Corporation). In its most common configuration, it excites and measures fluorescence emitted by fluorescein-based dyes. It uses an argon-ion laser to produce high power excitation at 488 nm of a fluorophore, a system of optics to rapidly scan the over the bottom of a 96-/384-well plate and a sensitive, cooled CCD camera to capture the emitted fluorescence. It also contains a 96-/384-well pipetting head allowing the instrument to deliver solutions of test agents into the wells of a 96-/384-well plate. The FLIPR assay is designed to measure fluorescence signals from populations of cells before, during and after addition of compounds, in real time, from all 96-/384-wells simultaneously. […] As described below, calcium transients in cells transfected with adenine binding GPCR were measured using the FLIPR assay in order to measure activation of the receptors by various substrates in order to determine the natural ligand of the receptor.
as §3, with “supplier. […]” for “supplier.”
Using the FLIPR assay as above, calcium transients were measured in both sets of cells with the transients attributable to the novel GPCR measured as the difference between the two transients. Results are illustrated in FIG. 4. […]

[2] = molecular target: T1, adenine binding rat receptor; assay: [35S]GTPγS binding on CHO membranes transiently transfected; type: biochemical; conditions: transiently transfected cells; for % stim.: increase above basal; for EC50: read-out: pEC50 (converted)
Description: a) Methods—Determination of [^35S ]GTPγS binding to the G-proteins was carried out according to a modified procedure of Lazareno (Methods Mol. Biol., 83:107-116, 1997). These experiments were performed for a first functional evaluation of the receptor on the level of a membrane preparation.
The assay mixture contained 10 and 35 μg of membrane protein for the transfected and wild type CHO cells, respectively.
For testing agonistic activity, 175 μl of diluted membranes was pre-incubated in the buffer described above together with 25 μl of buffer and 25 μl of varying concentrations of the compound in a total volume of 225 μl. After a 20 minute pre-incubation period at 30° C., 25 μl of [^35S]GTPγS was added to a final concentration of 0.25 nM and the assay mixtures were further incubated for 20 minutes at 30° C. Bound and free [^35S]GTPγS were separated by rapid filtration over an UniFilter™-96, GF/B™ under reduced pressure using Filtermate 196 filtration (Packard Company (Netherlands). The amount of bound radioactivity on the filter unit was determined after drying of the filters and scintillant addition (Microscint-O; Packard Company) by liquid scintillation counting.
Basal [^35S]GTPγS binding was measured in absence of compounds. Stimulation by agonist was calculated as the percentage increase above basal levels. The sigmoid agonist concentration-response curves were analyzed by non-linear regression using the GraphPad Prism program. The different concentration points were run in duplicates and the reported data were retrieved from independent experiments.

Row | IC50 ([1]; mean of n experiments) | IC50 ([1]; single experiments) | antagonistic effect (adenine binding GPCR) | calcium transients elicited (rat adenine binding GPCR) | agonistic effects on Ca2+ transients (rat adenine binding GPCR) | Compound | pIC50 (wild type CHO cells; mean of n experiments) | pIC50 (wild type CHO cells; single experiments) | other results
1 | > 100 µM | > 100 µM | weak antagonistic effect | could not be elicited | No further agonistic effects | Nc1nc2nc[nH]c2c(=O)[nH]1 [Guanine, guanine] | <4 | <4 | –
2 | – | – | – | – | – | COc1cccc2c1C(=O)c1c(O)c3c(c(O)c1C2=O)C[C@@](O)(C(=O)CO)C[C@@H]3O[C@H]1C[C@H](N)[C@H](O)[C@H](C)O1 [Adrianamycin] | <4 | <4 | Ki ([1]; mean of n experiments): 27.9 µM; pIC50 ([1]; mean of n experiments): 4.35; Ki ([1]; single experiments): 27.8 µM; pIC50 ([1]; single experiments): 4.35
3 | – | – | did not elicit antagonistic effects | could not be elicited | No further agonistic effects | O=c1[nH]c(=O)c2[nH]cnc2[nH]1 [xanthine] | – | – | –
4 | > 100 µM | > 100 µM | did not elicit antagonistic effects | could not be elicited | No further agonistic effects | O=c1ccn([C@@H]2O[C@H](CO)[C@@H](O)[C@H]2O)c(=O)[nH]1 [Uridine, uridine] | <4 | <4 | –
5 | – | – | did not elicit antagonistic effects | – | No further agonistic effects | reactive blue | – | – | –
6 | – | – | did not elicit antagonistic effects | – | No further agonistic effects | Nc1ncnc2c1ncn2[C@@H]1O[C@H](COP(=O)(O)OP(=O)(O)O)[C@@H](O)[C@H]1O [ADP] | <4 | <4 | pIC50 ([1]; mean of n experiments): <4; pIC50 ([1]; single experiments): <4
7 | – | – | did not elicit antagonistic effects | could not be elicited | No further agonistic effects | O=c1ccn([C@@H]2O[C@H](COP(=O)(O)OP(=O)(O)O)[C@@H](O)[C@H]2O)c(=O)[nH]1 [UDP] | – | – | –
8 | – | – | did not elicit antagonistic effects | – | No further agonistic effects | Cc1ccc(C(=O)Nc2ccc(S(=O)(=O)O)c3cc(S(=O)(=O)O)cc(S(=O)(=O)O)c23)cc1NC(=O)c1cccc(NC(=O)Nc2cccc(C(=O)Nc3cc(C(=O)Nc4ccc(S(=O)(=O)O)c5cc(S(=O)(=O)O)cc(S(=O)(=O)O)c45)ccc3C)c2)c1 [suramin] | – | – | –
9 | 93.3 µM | 87.1 µM | – | – | – | c1ccc(CNc2ncnc3nc[nH]c23)cc1 [6-Benzylaminopurine] | <4 | <4 | Ki ([1]; mean of n experiments): 58.3 µM; Ki ([1]; single experiments): 61.4 µM and 54.1 µM; stimulation normalized to maximum adenine response ([2]; adenine stimulation of same experiment = 100%): (11% ref); % stim. ([2]; mean of n experiments): 12%; % stim. ([2]; single experiments): 12%; EC50 ([2]; mean of n experiments): > 100 µM; EC50 ([2]; single experiments): > 100 µM
10 | – | – | did not elicit antagonistic effects | – | No further agonistic effects | O=c1ccn([C@@H]2O[C@H](COP(=O)(O)OP(=O)(O)OP(=O)(O)O)[C@@H](O)[C@H]2O)c(=O)[nH]1 [UTP] | – | – | –

Row | Compound | IC50 ([1]; mean of n experiments) | IC50 ([1]; single experiments) | antagonistic effect (adenine binding GPCR) | calcium transients elicited (rat adenine binding GPCR) | agonistic effects on Ca2+ transients (rat adenine binding GPCR) | pIC50 (wild type CHO cells; mean of n experiments) | pIC50 (wild type CHO cells; single experiments) | other results
11 | COc1cccc2c1C(=O)c1c(O)c3c(c(O)c1C2=O)C[C@@](O)(C(C)=O)C[C@@H]3O[C@H]1C[C@H](N)[C@H](O)[C@H](C)O1 [Daunomycin] | 50.1 µM | 50.1 µM | – | – | – | <4 | <4 | Ki ([1]; mean of n experiments): 31.3 µM; Ki ([1]; single experiments): 31 µM
12 | Cn1c(=O)c2[nH]cnc2n(C)c1=O [theophylline] | – | – | did not elicit antagonistic effects | – | No further agonistic effects | – | – | –
